The record followed here is ChEMBL document CHEMBL4304761, “Alkylsulfonamide-containing quinazoline derivatives as potent and orally bioavailable PI3Ks inhibitors” (Bioorg Med Chem, 2019).

Active and inactive are the calls of the source. The rule behind the calls is not given here.

The test system of one series is SU-DHL-6. Kind of series: Antiproliferative activity against human SUDHL6 cells measured after 72 hrs by CCK-8 assay. It is filed as functional, cell-based. Particulars: SU-DHL-6, 72 h. Background: Tetrazolium assays rely on reduction of a dye to a coloured formazan, in cell work by metabolically active cells.
The next series deals with MCF7. Kind of series: Antiproliferative activity against human MCF7 cells harboring PIK3CA mutant E545K measured after 72 hrs by MTT assay. It is filed as functional, cell-based. Particulars: MCF7, 72 h.
Series [1] has as its system HCT-116. Kind of series: Antiproliferative activity against human HCT116 cells harboring PIK3CA mutant H1047R measured after 72 hrs by MTT assay. It counts as functional, cell-based. Particulars: HCT-116, 72 h.
The target in series [2] is T1, Phosphatidylinositol 4,5-bisphosphate 3-kinase catalytic subunit alpha isoform (Homo sapiens, UniProt P42336). The series is described as follows: Inhibition of PI3K alpha (unknown origin) using lipid substrate measured after 40 mins in presence of ATP by Kinase-Glo plus reagent based luminescence assay. (Kinase-Glo measures the ATP left after a reaction by luminescence.)

Series [3] is filed under the species Homo sapiens. Kind of series: Selectivity ratio of IC50 for inhibition of PI3K gamma (unknown origin) to IC50 for inhibition of PI3K alpha (unknown origin).
In series [4] the target is Phosphatidylinositol 4,5-bisphosphate 3-kinase catalytic subunit beta isoform (Homo sapiens, UniProt P42338). The series is described as follows: Inhibition of PI3K beta (unknown origin) using lipid substrate measured after 40 mins in presence of ATP by Kinase-Glo plus reagent based luminescence assay.
Series [5] addresses Phosphatidylinositol 4,5-bisphosphate 3-kinase catalytic subunit gamma isoform (Homo sapiens, UniProt P48736). Kind of series: Inhibition of PI3K gamma (unknown origin) using lipid substrate measured after 40 mins in presence of ATP by Kinase-Glo plus reagent based luminescence assay.
Series [6] is filed under the species Homo sapiens. The series is described as follows: Selectivity ratio of IC50 for inhibition of PI3K beta (unknown origin) to IC50 for inhibition of PI3K alpha (unknown origin).
In series [7] the target is T2, Phosphatidylinositol 4,5-bisphosphate 3-kinase catalytic subunit delta isoform (Homo sapiens, UniProt O00329).
T2 sequence (O00329 whole entry): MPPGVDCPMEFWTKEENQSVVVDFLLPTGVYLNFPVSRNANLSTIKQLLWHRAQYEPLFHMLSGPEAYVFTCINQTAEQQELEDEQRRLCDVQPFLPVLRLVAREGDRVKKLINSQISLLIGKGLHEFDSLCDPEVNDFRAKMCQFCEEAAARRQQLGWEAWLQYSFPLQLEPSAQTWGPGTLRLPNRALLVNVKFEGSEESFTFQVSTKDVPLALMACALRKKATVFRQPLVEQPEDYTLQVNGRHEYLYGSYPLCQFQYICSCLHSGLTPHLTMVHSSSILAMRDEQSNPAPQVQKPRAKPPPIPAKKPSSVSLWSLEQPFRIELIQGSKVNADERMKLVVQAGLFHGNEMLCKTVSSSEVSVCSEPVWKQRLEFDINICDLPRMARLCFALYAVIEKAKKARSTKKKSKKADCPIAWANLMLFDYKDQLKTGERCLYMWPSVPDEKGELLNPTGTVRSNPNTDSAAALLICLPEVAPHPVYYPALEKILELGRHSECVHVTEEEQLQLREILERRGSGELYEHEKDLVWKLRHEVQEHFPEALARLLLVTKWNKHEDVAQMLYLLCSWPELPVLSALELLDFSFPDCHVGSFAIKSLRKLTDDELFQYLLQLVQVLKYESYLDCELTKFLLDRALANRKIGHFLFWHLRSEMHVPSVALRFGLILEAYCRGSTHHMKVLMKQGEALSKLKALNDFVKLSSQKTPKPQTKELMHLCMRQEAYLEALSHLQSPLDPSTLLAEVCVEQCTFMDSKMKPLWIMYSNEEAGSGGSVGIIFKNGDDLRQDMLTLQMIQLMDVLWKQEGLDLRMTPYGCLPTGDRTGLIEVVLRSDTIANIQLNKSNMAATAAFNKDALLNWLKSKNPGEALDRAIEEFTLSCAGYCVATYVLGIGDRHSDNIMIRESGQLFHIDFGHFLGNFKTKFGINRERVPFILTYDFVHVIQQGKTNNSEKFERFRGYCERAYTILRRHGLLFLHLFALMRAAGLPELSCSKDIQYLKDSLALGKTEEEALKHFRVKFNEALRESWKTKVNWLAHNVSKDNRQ
Kind of series: Inhibition of PI3K delta (unknown origin) using lipid substrate measured after 40 mins in presence of ATP by Kinase-Glo plus reagent based luminescence assay.

Series [8] is filed under the species Homo sapiens. Kind of series: Selectivity ratio of IC50 for inhibition of PI3K delta (unknown origin) to IC50 for inhibition of PI3K alpha (unknown origin).
Series [9] has as its target T1, Phosphatidylinositol 4,5-bisphosphate 3-kinase catalytic subunit alpha isoform. Kind of series: Potency index, ratio of 2-methoxy-5-(4-(2-morpholinoethylamino)quinazolin-6-yl)nicotinonitrile IC50 to test compound IC50 for inhibition of PI3K alpha (unknown origin).
Series [10] relates to HCT-116. The series is described as follows: Antitumour activity against human HCT116 cells xenografted in BALB/c nude mouse assessed as tumour weight at 5 mg/kg, po via gavage administered once daily for 15 days and measure every three days by caliper method (reference value: 3.2 +/- 0.32 g). It is filed as functional. On the technique in general: A xenograft is tissue or cells of one species grown in another, often human tumour cells in immunodeficient mice.

The subject of series [11] is HCT-116. Kind of series: Antitumour activity against human HCT116 cells xenografted in BALB/c nude mouse assessed as tumour growth inhibition at 25 mg/kg, po via gavage administered once daily for 15 days and measure every three days by caliper method relative to control. It counts as functional. Particulars: HCT-116, po, read-out: TGI.
The test system of series [12] is HCT-116. Kind of series: Antitumour activity against human HCT116 cells xenografted in BALB/c nude mouse assessed as tumour volume at 5 mg/kg, po via gavage administered once daily for 15 days and measure every three days by caliper method (reference value: 2769 +/- 536 mm3). It is filed as functional.
A short description of series [13]: Inhibition of PI3K/AKT/mTOR signaling in human HCT116 cells assessed as decrease in AKT phosphorylation at S473 measured after 5 hrs by Western blot analysis. It is filed as cell-based.
Series [14] has as its system HCT-116. The series is described as follows: Antitumour activity against human HCT116 cells xenografted in BALB/c nude mouse assessed as tumour weight at 25 mg/kg, po via gavage administered once daily for 15 days and measure every three days by caliper method (reference value: 3.2 +/- 0.32 g). It counts as functional.
In series [15] the test system is HCT-116. The series is described as follows: Antitumour activity against human HCT116 cells xenografted in BALB/c nude mouse assessed as tumour volume at 25 mg/kg, po via gavage administered once daily for 15 days and measure every three days by caliper method (reference value: 2769 +/- 536 mm3). It is filed as functional.
A short description of series [16]: Toxicity in BALB/c nude mouse xenografted with human HCT116 cells assessed as effect on body weight at 5 to 25 mg/kg, po via gavage administered once daily for 15 days. It is filed as organism-based. Particulars: in vivo, 360 h.
The test system of series [17] is HCT-116. Kind of series: Antitumour activity against human HCT116 cells xenografted in BALB/c nude mouse assessed as tumour growth inhibition at 5 mg/kg, po via gavage administered once daily for 15 days and measure every three days by caliper method relative to control. It is filed as functional. Particulars: HCT-116, po, read-out: TGI.
Series [18] can be described thus: Inhibition of PI3K/AKT/mTOR signaling in human HCT116 cells assessed as decrease in AKT phosphorylation at S473 at 1 uM measured after 5 hrs by Western blot analysis. It is filed as cell-based.

Sequence of Phosphatidylinositol 4,5-bisphosphate 3-kinase catalytic subunit beta isoform (P42338 whole entry, canonical isoform): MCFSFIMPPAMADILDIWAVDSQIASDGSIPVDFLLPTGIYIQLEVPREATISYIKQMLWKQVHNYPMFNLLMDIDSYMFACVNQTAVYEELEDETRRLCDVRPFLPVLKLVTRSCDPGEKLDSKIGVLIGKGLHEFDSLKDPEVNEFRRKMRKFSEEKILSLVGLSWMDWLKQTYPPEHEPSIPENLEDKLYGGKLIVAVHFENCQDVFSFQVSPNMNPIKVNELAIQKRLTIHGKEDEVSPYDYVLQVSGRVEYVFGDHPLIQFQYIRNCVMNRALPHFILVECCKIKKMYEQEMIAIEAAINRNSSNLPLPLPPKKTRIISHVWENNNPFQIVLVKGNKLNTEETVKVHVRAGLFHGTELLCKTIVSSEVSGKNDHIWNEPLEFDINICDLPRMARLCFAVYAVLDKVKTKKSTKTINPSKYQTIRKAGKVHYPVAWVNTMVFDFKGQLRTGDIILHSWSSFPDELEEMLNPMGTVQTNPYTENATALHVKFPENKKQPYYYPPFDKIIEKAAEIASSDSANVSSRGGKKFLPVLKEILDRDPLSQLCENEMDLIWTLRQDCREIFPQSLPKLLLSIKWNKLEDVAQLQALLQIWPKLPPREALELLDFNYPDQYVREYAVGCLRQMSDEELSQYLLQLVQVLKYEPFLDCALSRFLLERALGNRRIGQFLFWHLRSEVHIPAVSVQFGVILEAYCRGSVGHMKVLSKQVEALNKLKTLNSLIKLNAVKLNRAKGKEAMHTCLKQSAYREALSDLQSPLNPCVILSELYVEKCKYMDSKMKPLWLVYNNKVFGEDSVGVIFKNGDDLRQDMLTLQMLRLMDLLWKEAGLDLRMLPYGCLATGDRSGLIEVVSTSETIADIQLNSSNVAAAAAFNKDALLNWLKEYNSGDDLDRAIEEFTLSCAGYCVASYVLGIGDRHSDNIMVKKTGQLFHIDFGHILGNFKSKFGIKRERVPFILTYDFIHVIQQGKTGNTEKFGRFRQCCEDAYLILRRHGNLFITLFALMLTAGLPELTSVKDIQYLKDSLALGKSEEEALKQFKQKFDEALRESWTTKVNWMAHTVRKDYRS
T1 sequence (P42336 whole entry, canonical isoform): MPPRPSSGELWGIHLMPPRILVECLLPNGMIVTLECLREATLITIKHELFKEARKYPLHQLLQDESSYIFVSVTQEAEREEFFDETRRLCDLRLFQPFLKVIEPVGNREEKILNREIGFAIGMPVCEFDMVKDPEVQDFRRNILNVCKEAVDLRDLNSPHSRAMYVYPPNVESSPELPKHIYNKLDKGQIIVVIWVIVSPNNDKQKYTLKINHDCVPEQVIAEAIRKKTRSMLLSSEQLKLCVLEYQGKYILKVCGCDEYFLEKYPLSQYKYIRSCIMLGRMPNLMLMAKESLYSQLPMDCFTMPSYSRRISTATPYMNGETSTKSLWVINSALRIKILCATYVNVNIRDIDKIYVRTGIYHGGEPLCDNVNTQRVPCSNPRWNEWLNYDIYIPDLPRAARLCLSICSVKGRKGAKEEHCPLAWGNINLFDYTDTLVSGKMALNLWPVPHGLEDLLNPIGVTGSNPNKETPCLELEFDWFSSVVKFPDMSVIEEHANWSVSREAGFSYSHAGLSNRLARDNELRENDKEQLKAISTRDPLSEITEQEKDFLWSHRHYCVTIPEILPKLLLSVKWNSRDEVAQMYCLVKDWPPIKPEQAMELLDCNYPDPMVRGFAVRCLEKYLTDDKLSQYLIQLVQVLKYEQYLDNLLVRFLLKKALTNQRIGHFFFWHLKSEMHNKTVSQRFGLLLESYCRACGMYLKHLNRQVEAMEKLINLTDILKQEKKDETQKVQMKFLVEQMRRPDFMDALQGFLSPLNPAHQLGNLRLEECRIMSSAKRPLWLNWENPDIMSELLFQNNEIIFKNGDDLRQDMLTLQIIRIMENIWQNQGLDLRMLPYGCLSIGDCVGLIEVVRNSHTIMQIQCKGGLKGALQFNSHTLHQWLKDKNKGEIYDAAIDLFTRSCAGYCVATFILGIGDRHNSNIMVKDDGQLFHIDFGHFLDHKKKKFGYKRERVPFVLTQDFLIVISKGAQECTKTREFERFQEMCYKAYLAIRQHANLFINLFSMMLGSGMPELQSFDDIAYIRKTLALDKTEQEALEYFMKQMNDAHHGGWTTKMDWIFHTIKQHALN
Sequence of Phosphatidylinositol 4,5-bisphosphate 3-kinase catalytic subunit gamma isoform (P48736 whole entry, canonical isoform): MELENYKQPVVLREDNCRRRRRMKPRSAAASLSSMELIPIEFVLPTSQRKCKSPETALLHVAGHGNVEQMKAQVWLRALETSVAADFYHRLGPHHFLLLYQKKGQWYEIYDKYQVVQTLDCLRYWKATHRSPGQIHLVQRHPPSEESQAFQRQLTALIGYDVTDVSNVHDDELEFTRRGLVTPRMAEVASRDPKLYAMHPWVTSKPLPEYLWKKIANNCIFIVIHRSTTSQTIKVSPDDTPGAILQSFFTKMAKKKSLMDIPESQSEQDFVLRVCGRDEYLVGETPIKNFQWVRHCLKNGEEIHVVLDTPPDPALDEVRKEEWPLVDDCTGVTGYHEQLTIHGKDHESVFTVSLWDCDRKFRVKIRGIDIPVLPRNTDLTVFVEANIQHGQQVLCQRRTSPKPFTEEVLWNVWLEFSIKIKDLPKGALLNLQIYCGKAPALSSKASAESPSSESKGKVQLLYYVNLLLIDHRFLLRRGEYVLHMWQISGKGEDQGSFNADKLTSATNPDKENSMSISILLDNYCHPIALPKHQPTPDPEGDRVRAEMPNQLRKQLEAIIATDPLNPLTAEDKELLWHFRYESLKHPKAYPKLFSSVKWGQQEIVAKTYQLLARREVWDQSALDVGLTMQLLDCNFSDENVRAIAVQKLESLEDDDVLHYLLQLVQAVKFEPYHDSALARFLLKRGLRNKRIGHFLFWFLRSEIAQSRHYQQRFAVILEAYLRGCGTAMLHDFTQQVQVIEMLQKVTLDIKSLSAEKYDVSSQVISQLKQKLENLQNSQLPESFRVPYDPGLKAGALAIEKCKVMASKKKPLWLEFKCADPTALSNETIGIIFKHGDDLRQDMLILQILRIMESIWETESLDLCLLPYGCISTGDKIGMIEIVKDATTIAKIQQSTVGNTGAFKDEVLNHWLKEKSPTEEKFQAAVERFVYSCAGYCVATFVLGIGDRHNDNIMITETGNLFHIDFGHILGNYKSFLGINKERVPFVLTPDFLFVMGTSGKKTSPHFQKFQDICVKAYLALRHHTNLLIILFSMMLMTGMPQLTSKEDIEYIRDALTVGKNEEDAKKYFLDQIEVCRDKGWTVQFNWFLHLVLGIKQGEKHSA

As for `COc1ncc(-c2ccc3ncnc(NC4CCN(C(C)=O)CC4)c3c2)cc1NS(C)(=O)=O`, the concentration for half-maximal inhibition (IC50) in the series on SU-DHL-6 was 4300 nM; in the series with MCF7, 16000 nM; with HCT-116 [1], 720 nM; in series [2], 0.4 nM.
In the same order, the values of `COc1ncc(-c2ccc3ncnc(NCCN(C)C)c3c2)cc1NS(C)(=O)=O` are 1700 nM, 10000 nM, 8700 nM and 7 nM.
Turning to `COc1ncc(-c2ccc3ncnc(N[C@H]4CCN(C(=O)OC(C)(C)C)C4)c3c2)cc1NS(C)(=O)=O`, the IC50 with SU-DHL-6 was determined as 170 nM; in the series on MCF7, 870 nM; in the series on HCT-116 [1], 250 nM; in [2] it was 5.3 nM.
In the same order, the values of `COc1ncc(-c2ccc3ncnc(N[C@H]4CCN(C(=O)C5CCCC5)C4)c3c2)cc1NS(C)(=O)=O` are 770 nM, 2500 nM, 2100 nM and 2.3 nM.
Take `COc1ncc(-c2ccc3ncnc(N[C@H]4CCN(C(C)=O)C4)c3c2)cc1NS(C)(=O)=O`: the Ratio IC50 in the series listed under Homo sapiens [3], in the series listed under Homo sapiens [6] and in the series filed under Homo sapiens [8] was 10 throughout. For the same compound, the IC50 was 5 nM in series [4]; no less than 100000 nM in the series with SU-DHL-6; 14000 nM in the series on MCF7; 290 nM in the series with HCT-116 [1]; 4.3 nM in series [5]; 6.8 nM in series [7]. Further, in series [2], the IC50 came to 0.5 nM.
On to `COc1ncc(-c2ccc3ncnc(N(C)CCN(C)C)c3c2)cc1NS(C)(=O)=O`, for which the IC50 worked out at 1700 nM in the series with SU-DHL-6, 4700 nM in the series on MCF7, 5100 nM with HCT-116 [1] and 7.7 nM in series [2].
On the same counts, the results for `COc1ncc(-c2ccc3ncnc(NCCN4CCCCC4)c3c2)cc1NS(=O)(=O)C1CC1` are 410 nM, 3200 nM, 5800 nM and 34 nM.
Regarding `COc1ncc(-c2ccc3nccc(NCCN4CCOCC4)c3c2)cc1NS(C)(=O)=O`, the concentration for half-maximal inhibition (IC50) with SU-DHL-6 is no less than 100000 nM; in the series with MCF7, 88000 nM; in the series on HCT-116 [1] it was 29000 nM; in [2] it was 106 nM.
In the same order, the values of `COc1ncc(-c2ccc3ncnc(NC4CCN(C(=O)C5CCCC5)CC4)c3c2)cc1NS(C)(=O)=O` are 3300 nM, 7900 nM, 2800 nM and 2.8 nM.
On to `COc1ncc(-c2ccc3ncnc(NCCN4CCOCC4)c3c2)cc1NS(=O)(=O)C1CC1`, for which the IC50 with SU-DHL-6 was 330 nM; in the series on MCF7, 1500 nM; in the series with HCT-116 [1], 1900 nM; in [2], 7.1 nM.
In the same order, the values of `COc1ncc(-c2ccc3ncnc(NC4CCN(C(=O)OC(C)(C)C)CC4)c3c2)cc1NS(C)(=O)=O` are 9700 nM, 15000 nM, 1800 nM and 7 nM.
On to `COc1ncc(-c2ccc3ncnc(N[C@H]4CCN(C(=O)C5CC5)C4)c3c2)cc1NS(C)(=O)=O`, for which the IC50 in the series on SU-DHL-6 came to 3000 nM; in the series on MCF7, 3700 nM; with HCT-116 [1], 1000 nM; in series [2], 1 nM.
In the same order, the values of `COc1ncc(-c2ccc3ncnc(NCCN4CCCCC4)c3c2)cc1NS(C)(=O)=O` are 320 nM, 3700 nM, 1600 nM and 12 nM.
`COc1ncc(-c2ccc3ncnc(NCCN4CCOCC4)c3c2)cc1NS(C)(=O)=O`: the Ratio IC50 in [9] came to 100. Besides, the Activity in the series on HCT-116 [10] was 2 g; in the series with HCT-116 [12], 1299 mm3; in the series with HCT-116 [14], 1.6 g; in the series on HCT-116 [15], 992 mm3; in series [16], “Non-Toxic”. Further, in the series on HCT-116 [11], the inhibition in vivo at 25 mg/kg was 62%. Also, the IC50 came out at 16 nM in series [4]; 190 nM in the series with SU-DHL-6; 990 nM with MCF7; 820 nM in the series on HCT-116 [1]; 6 nM in [5]; 2.2 nM in series [7]. In addition, the IC50 in series [2] was 4.5 nM. Moreover, the inhibition result in [13] was “Dose-dependent effect”. The inhibition in vivo at 5 mg/kg with HCT-116 [17] worked out at 53%.
For `Cn1c(=O)n(-c2ccc(C(C)(C)C#N)cc2)c2c3cc(-c4cnc5ccccc5c4)ccc3ncc21` [DACTOLISIB], the IC50 came to 70 nM with SU-DHL-6, 350 nM in the series on MCF7 and 370 nM with HCT-116 [1]. For the same compound, the inhibition result in series [18] was “Active”.
For `COc1ncc(-c2ccc3ncnc(NC4CCNCC4)c3c2)cc1NS(C)(=O)=O`, the IC50 is no less than 100000 nM in the series with SU-DHL-6, 11000 nM in the series with MCF7, 1300 nM with HCT-116 [1] and 0.9 nM in series [2].
Take `COc1ncc(-c2ccc3ncnc(N[C@H]4CCN(C(=O)C5CCOCC5)C4)c3c2)cc1NS(C)(=O)=O`: the Ratio IC50 in the series filed under Homo sapiens [3], in the series listed under Homo sapiens [6] and in the series filed under Homo sapiens [8] was 10 throughout. Further, the IC50 in series [4] turned out to be 5.6 nM; in the series with SU-DHL-6 it was 1500 nM; in the series on MCF7, 4800 nM; in the series on HCT-116 [1], 1700 nM; in [5] it was 6.5 nM; in [7] it was 7.4 nM. In series [2], the half-inhibitory concentration (IC50) was 0.7 nM.
`COc1ncc(-c2ccc3ncnc(N[C@H]4CCN(C(=O)C(C)(C)C)C4)c3c2)cc1NS(C)(=O)=O`: the IC50 with SU-DHL-6 amounted to 7600 nM; with MCF7, 590 nM; in the series with HCT-116 [1], 2000 nM; in series [2] it was 2.6 nM.
For `COc1ncc(-c2ccc3ncnc(NC4CCN(C(=O)C5CCOCC5)CC4)c3c2)cc1NS(C)(=O)=O`, the IC50 is no less than 100000 nM with SU-DHL-6, 6000 nM in the series on MCF7, 2900 nM in the series with HCT-116 [1] and 2.1 nM in [2].

What is called IC50 is the concentration that gives 50% inhibition.
